Test results taken from US8192962B2, “Processes for detecting toxic substances” (Daikin Industries, Ltd., priority 2001, dated 2012).

Tested on: Stress protein genes
Experiment: DNA chip mRNA expression in yeast, stress protein genes (Table 6)
Type: cell-based, Saccharomyces cerevisiae S288C
In short: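 First, S288C yeast grown in YPD at 25° C. are dosed in log phase with one toxicant (growth-inhibiting, not lethal) for 2 h. Next, total RNA is extracted and poly(A) mRNA isolated and reverse-transcribed with Cy3/Cy5-dUTP. Finally, whole-genome chip fluorescence is read relative to unexposed cells.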

CCCCCCCCCCCCOS(=O)(=O)[O-].[Na+] [(18), sodium lauryl sulfate]
The level of expressed mRNA in the presence of chemical substance/The level of expressed mRNA in the absence of chemical substance (yeast gene YAL005C): 0.5 | The level of expressed mRNA in the presence of chemical substance/The level of expressed mRNA in the absence of chemical substance (yeast gene YAL015C): 1.2 | The level of expressed mRNA in the presence of chemical substance/The level of expressed mRNA in the absence of chemical substance (yeast gene YBL075C): 0.7 | The level of expressed mRNA in the presence of chemical substance/The level of expressed mRNA in the absence of chemical substance (yeast gene YBL093C): 1.3 | The level of expressed mRNA in the presence of chemical substance/The level of expressed mRNA in the absence of chemical substance (yeast gene YBR044C): 1.3 | The level of expressed mRNA in the presence of chemical substance/The level of expressed mRNA in the absence of chemical substance (yeast gene YBR054W): 0.7 | The level of expressed mRNA in the presence of chemical substance/The level of expressed mRNA in the absence of chemical substance (yeast gene YBR067C): 0.4 | The level of expressed mRNA in the presence of chemical substance/The level of expressed mRNA in the absence of chemical substance (yeast gene YBR072W): 2.2 | The level of expressed mRNA in the presence of chemical substance/The level of expressed mRNA in the absence of chemical substance (yeast gene YBR126C): 1.3 | The level of expressed mRNA in the presence of chemical substance/The level of expressed mRNA in the absence of chemical substance (yeast gene YBR169C): 1.6 | The level of expressed mRNA in the presence of chemical substance/The level of expressed mRNA in the absence of chemical substance (yeast gene YCL035C): 4.2 | The level of expressed mRNA in the presence of chemical substance/The level of expressed mRNA in the absence of chemical substance (yeast gene YCR021C): 0.8 | The level of expressed mRNA in the presence of chemical substance/The level of expressed mRNA in the absence of chemical substance (yeast gene YCR060W): 1.7 | The level of expressed mRNA in the presence of chemical substance/The level of expressed mRNA in the absence of chemical substance (yeast gene YCR083W): 1.3 | The level of expressed mRNA in the presence of chemical substance/The level of expressed mRNA in the absence of chemical substance (yeast gene YDL022W): 1.4 | The level of expressed mRNA in the presence of chemical substance/The level of expressed mRNA in the absence of chemical substance (yeast gene YDL025C): 1.4 | The level of expressed mRNA in the presence of chemical substance/The level of expressed mRNA in the absence of chemical substance (yeast gene YDR033W): 1.0 | The level of expressed mRNA in the presence of chemical substance/The level of expressed mRNA in the absence of chemical substance (yeast gene YDR077W): 1.1 | The level of expressed mRNA in the presence of chemical substance/The level of expressed mRNA in the absence of chemical substance (yeast gene YDR098C): 1.2 | The level of expressed mRNA in the presence of chemical substance/The level of expressed mRNA in the absence of chemical substance (yeast gene YDR155C): 2.5 | The level of expressed mRNA in the presence of chemical substance/The level of expressed mRNA in the absence of chemical substance (yeast gene YDR258C): 1.3 | The level of expressed mRNA in the presence of chemical substance/The level of expressed mRNA in the absence of chemical substance (yeast gene YDR293C): 1.3 | The level of expressed mRNA in the presence of chemical substance/The level of expressed mRNA in the absence of chemical substance (yeast gene YDR436W): 1.2 | The level of expressed mRNA in the presence of chemical substance/The level of expressed mRNA in the absence of chemical substance (yeast gene YDR513W): 3.2 | The level of expressed mRNA in the presence of chemical substance/The level of expressed mRNA in the absence of chemical substance (yeast gene YDR519W): 2.4 | The level of expressed mRNA in the presence of chemical substance/The level of expressed mRNA in the absence of chemical substance (yeast gene YEL030W): 0.6 | The level of expressed mRNA in the presence of chemical substance/The level of expressed mRNA in the absence of chemical substance (yeast gene YEL039C): 1.1 | The level of expressed mRNA in the presence of chemical substance/The level of expressed mRNA in the absence of chemical substance (yeast gene YER042W): 1.1 | The level of expressed mRNA in the presence of chemical substance/The level of expressed mRNA in the absence of chemical substance (yeast gene YER057C): 1.8 | The level of expressed mRNA in the presence of chemical substance/The level of expressed mRNA in the absence of chemical substance (yeast gene YER103W): 0.6 | The level of expressed mRNA in the presence of chemical substance/The level of expressed mRNA in the absence of chemical substance (yeast gene YER125W): 1.0 | The level of expressed mRNA in the presence of chemical substance/The level of expressed mRNA in the absence of chemical substance (yeast gene YFL014W): 8.8 | The level of expressed mRNA in the presence of chemical substance/The level of expressed mRNA in the absence of chemical substance (yeast gene YFL016C): 0.9 | The level of expressed mRNA in the presence of chemical substance/The level of expressed mRNA in the absence of chemical substance (yeast gene YFL020C): 0.9 | The level of expressed mRNA in the presence of chemical substance/The level of expressed mRNA in the absence of chemical substance (yeast gene YFR052W): 1.9 | The level of expressed mRNA in the presence of chemical substance/The level of expressed mRNA in the absence of chemical substance (yeast gene YGL073W): 1.2 | The level of expressed mRNA in the presence of chemical substance/The level of expressed mRNA in the absence of chemical substance (yeast gene YGL115W): 1.2 | The level of expressed mRNA in the presence of chemical substance/The level of expressed mRNA in the absence of chemical substance (yeast gene YGL181W): 1.3 | The level of expressed mRNA in the presence of chemical substance/The level of expressed mRNA in the absence of chemical substance (yeast gene YGR088W): 2.0 | The level of expressed mRNA in the presence of chemical substance/The level of expressed mRNA in the absence of chemical substance (yeast gene YHL028W): 2.5 | The level of expressed mRNA in the presence of chemical substance/The level of expressed mRNA in the absence of chemical substance (yeast gene YHL046C): 0.9 | The level of expressed mRNA in the presence of chemical substance/The level of expressed mRNA in the absence of chemical substance (yeast gene YHR030C): 1.8 | The level of expressed mRNA in the presence of chemical substance/The level of expressed mRNA in the absence of chemical substance (yeast gene YHR057C): 1.3 | The level of expressed mRNA in the presence of chemical substance/The level of expressed mRNA in the absence of chemical substance (yeast gene YHR104W): 1.9 | The level of expressed mRNA in the presence of chemical substance/The level of expressed mRNA in the absence of chemical substance (yeast gene YIL011W): 0.8 | The level of expressed mRNA in the presence of chemical substance/The level of expressed mRNA in the absence of chemical substance (yeast gene YIL033C): 1.2 | The level of expressed mRNA in the presence of chemical substance/The level of expressed mRNA in the absence of chemical substance (yeast gene YIR037W): 2.9 | The level of expressed mRNA in the presence of chemical substance/The level of expressed mRNA in the absence of chemical substance (yeast gene YIR038C): 2.0 | The level of expressed mRNA in the presence of chemical substance/The level of expressed mRNA in the absence of chemical substance (yeast gene YJL128C): 1.0 | The level of expressed mRNA in the presence of chemical substance/The level of expressed mRNA in the absence of chemical substance (yeast gene YJL158C): 1.4 | The level of expressed mRNA in the presence of chemical substance/The level of expressed mRNA in the absence of chemical substance (yeast gene YJL159W): 0.9 | The level of expressed mRNA in the presence of chemical substance/The level of expressed mRNA in the absence of chemical substance (yeast gene YJL165C): 1.8 | The level of expressed mRNA in the presence of chemical substance/The level of expressed mRNA in the absence of chemical substance (yeast gene YJR045C): 0.9 | The level of expressed mRNA in the presence of chemical substance/The level of expressed mRNA in the absence of chemical substance (yeast gene YJR090C): 1.0 | The level of expressed mRNA in the presence of chemical substance/The level of expressed mRNA in the absence of chemical substance (yeast gene YKL161C): 1.9 | The level of expressed mRNA in the presence of chemical substance/The level of expressed mRNA in the absence of chemical substance (yeast gene YKL163W): 1.0 | The level of expressed mRNA in the presence of chemical substance/The level of expressed mRNA in the absence of chemical substance (yeast gene YKL164C): 0.8 | The level of expressed mRNA in the presence of chemical substance/The level of expressed mRNA in the absence of chemical substance (yeast gene YKL210W): 1.1 | The level of expressed mRNA in the presence of chemical substance/The level of expressed mRNA in the absence of chemical substance (yeast gene YKR053C): 2.4 | The level of expressed mRNA in the presence of chemical substance/The level of expressed mRNA in the absence of chemical substance (yeast gene YLL024C): 0.6 | The level of expressed mRNA in the presence of chemical substance/The level of expressed mRNA in the absence of chemical substance (yeast gene YLL026W): 2.5 | The level of expressed mRNA in the presence of chemical substance/The level of expressed mRNA in the absence of chemical substance (yeast gene YLL039C): 2.1 | The level of expressed mRNA in the presence of chemical substance/The level of expressed mRNA in the absence of chemical substance (yeast gene YLL060C): 2.3 | The level of expressed mRNA in the presence of chemical substance/The level of expressed mRNA in the absence of chemical substance (yeast gene YLR006C): 1.0 | The level of expressed mRNA in the presence of chemical substance/The level of expressed mRNA in the absence of chemical substance (yeast gene YLR109W): 1.2 | The level of expressed mRNA in the presence of chemical substance/The level of expressed mRNA in the absence of chemical substance (yeast gene YLR259C): 1.0 | The level of expressed mRNA in the presence of chemical substance/The level of expressed mRNA in the absence of chemical substance (yeast gene YML007W): 1.4 | The level of expressed mRNA in the presence of chemical substance/The level of expressed mRNA in the absence of chemical substance (yeast gene YML070W): 1.3 | The level of expressed mRNA in the presence of chemical substance/The level of expressed mRNA in the absence of chemical substance (yeast gene YMR021C): 3.4 | The level of expressed mRNA in the presence of chemical substance/The level of expressed mRNA in the absence of chemical substance (yeast gene YMR173W): 1.8 | The level of expressed mRNA in the presence of chemical substance/The level of expressed mRNA in the absence of chemical substance (yeast gene YMR186W): 1.1 | The level of expressed mRNA in the presence of chemical substance/The level of expressed mRNA in the absence of chemical substance (yeast gene YNL064C): 0.7 | The level of expressed mRNA in the presence of chemical substance/The level of expressed mRNA in the absence of chemical substance (yeast gene YNL160W): 1.0 | The level of expressed mRNA in the presence of chemical substance/The level of expressed mRNA in the absence of chemical substance (yeast gene YNL241C): 1.0 | The level of expressed mRNA in the presence of chemical substance/The level of expressed mRNA in the absence of chemical substance (yeast gene YNR076W): 0.8 | The level of expressed mRNA in the presence of chemical substance/The level of expressed mRNA in the absence of chemical substance (yeast gene YOL064C): 1.3 | The level of expressed mRNA in the presence of chemical substance/The level of expressed mRNA in the absence of chemical substance (yeast gene YOL161C): 1.0 | The level of expressed mRNA in the presence of chemical substance/The level of expressed mRNA in the absence of chemical substance (yeast gene YOR008C): 1.3 | The level of expressed mRNA in the presence of chemical substance/The level of expressed mRNA in the absence of chemical substance (yeast gene YOR009W): 0.8 | The level of expressed mRNA in the presence of chemical substance/The level of expressed mRNA in the absence of chemical substance (yeast gene YOR010C): 0.6 | The level of expressed mRNA in the presence of chemical substance/The level of expressed mRNA in the absence of chemical substance (yeast gene YOR027W): 0.8 | The level of expressed mRNA in the presence of chemical substance/The level of expressed mRNA in the absence of chemical substance (yeast gene YOR208W): 1.6 | The level of expressed mRNA in the presence of chemical substance/The level of expressed mRNA in the absence of chemical substance (yeast gene YPL059W): 1.3 | The level of expressed mRNA in the presence of chemical substance/The level of expressed mRNA in the absence of chemical substance (yeast gene YPL106C): 0.5 | The level of expressed mRNA in the presence of chemical substance/The level of expressed mRNA in the absence of chemical substance (yeast gene YPL140C): 1.4 | The level of expressed mRNA in the presence of chemical substance/The level of expressed mRNA in the absence of chemical substance (yeast gene YPL194W): 0.8 | The level of expressed mRNA in the presence of chemical substance/The level of expressed mRNA in the absence of chemical substance (yeast gene YPL223C): 1.3 | The level of expressed mRNA in the presence of chemical substance/The level of expressed mRNA in the absence of chemical substance (yeast gene YPL240C): 1.0 | The level of expressed mRNA in the presence of chemical substance/The level of expressed mRNA in the absence of chemical substance (yeast gene YPR005C): 1.1 | The level of expressed mRNA in the presence of chemical substance/The level of expressed mRNA in the absence of chemical substance (yeast gene YPR026W): 1.3
